Values quoted from earlier work in patent publication US12150969B2, “Synthetically enveloped virus” (priority 2016, dated 2024).

How the values were obtained:
[1] = system: Ras-dependent tumor growth; conditions: established cancer models

CC(C)=CCC/C(C)=C/CC/C(C)=C/CSc1ccccc1C(=O)O [FTS, S-trans, trans-farnesylthiosalicylic acid]
Ras antagonist activity (Ras): potent and especially nontoxic Ras antagonist
tumor growth and toxicity in animals [1]: inhibition of tumor growth in animals with no adverse toxicity
